molecular target: T1, serotonin S2 (5-HT2) receptors (Rattus norvegicus, UniProt P14842); experiment: inhibition of 3H-ketanserin binding to serotonin S2 (5-HT2) receptors in rat cortex in vitro; conditions: 3H-ketanserin 0.5 nM, rat cortex membranes, read-out: Binding IC50, 3H Ket.
T1 construct: cortical tissue is dissected and weighed; from tissue; host or cells: cerebral cortex membranes of male Wistar (Mol:Wist) rats
Method: Method in Hyttel, Pharmacology & Toxicology, 61, 126-129. 1987.
Male Wistar (Mol:Wist) rats (125-250 g) are sacrifices and cortical tissue is dissected and weighed. The tissue is homogenized (Ultra Turrax, 10 sec.) in 10 ml of ice-cold 50 mM tris buffer pH 7.7 (at 25° C.). The centrifuge glassware used in this step has been rinsed by sonication for 10 min. in ethanol. The homogenate is centrifuged twice at 20,000 g for 10 min. at 4° C. with rehomogenization of the pellet in 10 ml ice-cold buffer. The final pellet is homogenized in 500 vol (w/v) ice-cold buffer.
Incubation tubes kept on ice in triplicate receive 100 μl of drug solution in water (or water for total binding) and 2000 μl of tissue suspension (final tissue content corresponds to 4 mg original tissue). […] After incubation for 30 min. the samples are filtered under vacuum (0-50 mBar) through Whatman GF/F filters (25 mm). The tubes are rinsed with 5 ml ice-cold buffer which are then poured on the filters. Thereafter, the filters are washed with 2×5 ml of buffer. The filters are placed in counting vials and 4 ml of appropriate scintillation fluid (e.g., Picofluor™15) are added. After shaking for 1 h and storage 2 hrs in the dark the content of radioactivity is determined by liquid scintillation counting. Specific binding is obtained by subtracting the nonspecific binding in the presence of 1 μM mianserin. For determination of the inhibition of binding five concentrations of drugs covering 3 decades are used.
The IC50 value is determined as the concentration at which the binding is 50% of the total binding in control samples minus the nonspecific binding in the presence of 1 μM mianserin.

T1 sequence (P14842 whole entry): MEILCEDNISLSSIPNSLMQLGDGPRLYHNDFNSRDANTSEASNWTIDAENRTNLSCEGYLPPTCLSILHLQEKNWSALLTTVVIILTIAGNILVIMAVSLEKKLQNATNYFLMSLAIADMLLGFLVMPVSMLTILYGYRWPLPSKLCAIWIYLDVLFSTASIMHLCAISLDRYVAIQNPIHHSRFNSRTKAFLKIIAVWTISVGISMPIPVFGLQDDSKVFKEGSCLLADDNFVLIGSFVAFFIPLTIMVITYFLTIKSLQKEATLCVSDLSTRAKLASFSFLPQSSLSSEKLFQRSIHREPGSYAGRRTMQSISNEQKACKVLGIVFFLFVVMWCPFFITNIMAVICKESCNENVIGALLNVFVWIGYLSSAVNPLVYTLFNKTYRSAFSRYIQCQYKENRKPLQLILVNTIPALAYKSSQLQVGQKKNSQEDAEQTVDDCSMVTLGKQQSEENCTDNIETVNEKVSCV

In order of rising IC50:
1. Cc1c(C2=CCN(CCN3CCNC3=O)CC2)c2ccccc2n1-c1ccc(F)cc1 [Compound 24b, 1-(4-fluoropheyl)-3-[1-[2-(2-imidazolidinon-1-yl)ethyl]-1,2,3,6tetrahydropyridin-4-yl]-2-methyl-1H-indole]  1 nM
2. O=C1NCCN1CCN1CCC(c2cn(-c3ccc(F)cc3)c3cc4c(cc23)CCC4)CC1 [Compound 5h, 1-(4-fluorophenyl)-3-[1-[2-(2-imidazolidinon-1-yl)ethyl]-4-piperidyl]-1,5,6,7-tetrahydrocyclopent[f]-1H-indole]  1.2 nM
3. CN(C)C(=O)NCCN1CCC(c2cn(-c3ccc(F)cc3)c3cc(Cl)ccc23)CC1 [Compound 9l, 6-chloro-3-[1-[2-(3,3-dimethyl-1-ureido)-1-ethyl]-4-piperidyl]-1-(4-fluorophenyl)-1H-indole]  1.3 nM
4. CNC(=O)N(C)CCN1CCC(c2cn(-c3ccc(F)cc3)c3cc(Cl)ccc23)CC1 [Compound 9h, 6-chloro-1-(4-fluorophenyl)-3-[1-[2-(1,3-dimethyl-1-ureido)-1-ethyl]-4-piperidyl]-1H-indole]  1.6 nM
5. O=C1NCCN1CCN1CCC(c2cn(-c3ccc(F)cc3)c3cc(C(F)(F)F)ccc23)CC1 [Compound 4d, 1-(4-fluorophenyl)-3-[1-[2-(2-imidazolidinon-1-yl)ethyl]-4-piperidyl]-6-trifluoromethyl-1H-indole]  1.7 nM
6. O=C1NCCN1CCN1CCC(c2cn(-c3ccc(F)cc3)c3cc(Br)ccc23)CC1 [Compound 4h, 6-bromo-1-(4-fluorophenyl)-3-[1-[2-(2-imidazolidinon-1-yl)ethyl-]-4-piperidyl]-1H-indole]  1.8 nM
7. Cc1ccc2c(C3=CCN(CCN4CCN(C(C)C)C4=O)CC3)cn(-c3ccc(F)cc3)c2c1 [Compound 2b, 1-(4-fluorophenyl)-6-methyl-3-[1-[2-[3-(2-propyl)-2-imidazolidinon-1-yl]ethyl]-1,2,3,6-tetrahydropyridin-4-yl]-1H-indole]  1.9 nM
8. CC(C)N1CCN(CCN2CCC(c3cn(-c4ccc(F)cc4)c4cc(Br)ccc34)CC2)C1=O [Compound 5b, 6-bromo-1-(4-fluorophenyl)-3-[1-[2-[3-(2-propyl)-2-imidazolidinon-1-yl]ethyl]-4-piperidyl]-1H-indole]  2 nM
9. CC(C)NC(=O)N(C)CCN1CCC(c2cn(-c3ccc(F)cc3)c3cc(Cl)ccc23)CC1 [Compound 9i, 6-chloro-1-(4-fluorophenyl)-3-[1-[2-(1-methyl-3-(2-propyl)-1-ureido)-1-ethyl]-4-piperidyl]-1H-indole]  2.2 nM
10. CN(C)C(=S)NCCN1CCC(c2cn(-c3ccc(F)cc3)c3cc(Cl)ccc23)CC1 [Compound 9f]  2.5 nM
11. O=C1N(CCO)CCN1CCN1CCC(c2cn(-c3ccc(F)cc3)c3cc(Cl)ccc23)CC1 [Compound 18a, 6-chloro-1(4-fluorophenyl)-3-[1-[2-[3-(2-hydroxyethyl)-2-imidazolidinon-1-yl]e-thyl]-4-piperidyl]-1H-indole]  2.5 nM
12. CC(C)N1CCN(CCN2CCC(c3cn(-c4ccc(F)cc4)c4cc5c(cc34)CCC5)CC2)C1=O [Compound 5g, 1-(4-fluorophenyl)-3-[1-[2-[3-(2-propyl)-2-imidazolidinon-1-yl]ethyl]-4-piperidyl]-1,5,6,7-tetrahydrocyclopent[f]-1H-indole]  3.2 nM
13. CSc1ccc2c(C3CCN(CCN4CCN(C(C)C)C4=O)CC3)cn(-c3ccc(F)cc3)c2c1 [Compound 19a, 1-(4-fluorophenyl)-6-methylthio-3-[1-[2-[3-(2-propyl)-2-imidazolidinon-1-yl]ethyl]-4-piperidyl]-1H-indole]  3.2 nM
14. CC(C)N1CCN(CCN2CCC(c3cn(-c4ccc(F)cc4)c4cc(Cl)c(Cl)cc34)CC2)C1=O [Compound 5e, 5,6-dichloro-1-(4-fluorophenyl)-3-[1-[2-[3-(2-propyl)-2-imidazolidinon-1-yl]ethyl]-4-piperidyl]-1H-indole]  3.4 nM
15. CCOC(=O)NCCN1CCC(c2cn(-c3ccc(F)cc3)c3cc(Cl)ccc23)CC1 [Compound 9k]  4 nM
16. CC(C)N1CCN(CCN2CCC(c3cn(-c4ccccc4)c4cc(Cl)ccc34)CC2)C1=O [Compound 15k, 6-chloro-1-phenyl-3-[1-[2-[3-(2-propyl)-2-imidazolidinon-1-yl]ethyl]-4-piperidyl]-1H-indole]  4.5 nM
17. CC(C)n1ccn(CCN2CCC(c3cn(-c4ccc(F)cc4)c4cc(Cl)ccc34)CC2)c1=O [Compound 17a, 6-chloro-1-(4-fluorophenyl)-3-[1-[2-[3-(2-propyl)imidazol-2-on-1-yl]ethyl]-4-piperidyl]-1H-indole]  4.6 nM
18. CC(C)N(C)C(=O)NCCN1CCC(c2cn(-c3ccc(F)cc3)c3cc(Cl)ccc23)CC1 [Compound 9g, 6-chloro-1-(4-fluorophenyl)-3-[1-[2-[3-methyl-3-(2-propyl)-1-ureido]-1-ethyl]-4-piperidyl]-1H-indole]  6.2 nM
19. Fc1ccc(-n2cc(C3CCN(CCN4CCNC4=S)CC3)c3ccc(Cl)cc32)cc1 [Compound 12a, 6-chloro-1-(4-fluorophenyl)-3-[1-[2-(2-imidazolidinthion-1-yl)ethyl]-4-piperidyl]-1H-indole]  6.2 nM
20. CCN(CCN1CCC(c2cn(-c3ccc(F)cc3)c3cc(Cl)ccc23)CC1)C(=O)N(C)C [Compound 9e, 6-chloro-3-[1-[2-(3,3-dimethyl-1-ethyl-1-ureido)-1-ethyl]-4-piperidyl]-1-(4-fluorophenyl)-1H-indole]  6.4 nM
21. CC(C)N1CCN(CCN2CCC(c3cn(-c4ccc(F)cc4)c4cc(S(C)(=O)=O)ccc34)CC2)C1=O [Compound 4k, 1-(4-fluorophenyl)-6-methylsulfonyl-3-[1-[2-[3-(2-propyl)-2-imidazolidinon-1-yl]ethyl]-4-piperidyl]-1H-indole]  9 nM
22. CC(C)N1CCN(CCN2CCC(C3CN(c4ccc(F)cc4)c4cc(Cl)ccc43)CC2)C1=O (stereo not drawn) [Compound 21a, 6-chloro-1-(4-fluorophenyl)-3-[1-[2-[3-(2-propyl)-2-imidazolidinon-1-yl]ethyl]-4-piperidyl]-2,3-dihydro-1H-indole]  9.6 nM
23. OCCN1CCC(c2cn(-c3ccc(F)cc3)c3cc(Cl)ccc23)CC1 [Compound 4f, 6-chloro-1-(4-fluorophenyl)-3-[1-(2-hydroxyethyl)-4-piperidyl]-1H-indole]  11 nM
24. CC(=O)NCCN1CCC(c2cn(-c3ccc(F)cc3)c3cc(Cl)ccc23)CC1 [Compound 9j]  11 nM
25. CNC(=S)NCCN1CCC(c2cn(-c3ccc(F)cc3)c3cc(Cl)ccc23)CC1 [Compound 9c, 6-chloro-1-(4-fluorophenyl)-3-[1-[2-(3-methyl-1-thioureido)-1-ethyl]-4-piperidyl]-1H-indole]  12 nM
26. CC(C)c1ccc2c(C3CCN(CCN4CCNC4=O)CC3)cn(-c3ccc(F)cc3)c2c1 [Compound 5d, 1-(4-fluorophenyl)-6-(2-propyl)-3-[1-[2-(2-imidazolidinon-1-yl)ethyl]-4-piperidyl]-1H-indole]  18 nM
27. COc1ccc2c(C3CCN(CCN4CCOC4=O)CC3)cn(-c3ccc(F)cc3)c2c1 [Compound 4j, 1-(4-fluorophenyl)-6-methoxy-3-[1-[2-(2-oxazolidinon-1-yl]ethyl]-4-piperidyl]-1H-indole]  40 nM

molecular target: T2, dopamine D-2 receptors (Rattus norvegicus, UniProt P61169); experiment: inhibition of 3H-spiperone binding to dopamine D-2 receptors in rat corpus striatum in vitro; conditions: not given
T2 construct: striatal tissue is dissected and weighed; from tissue; host or cells: corpus striatum membranes of male Wistar rats
T2 sequence (P61169 whole entry): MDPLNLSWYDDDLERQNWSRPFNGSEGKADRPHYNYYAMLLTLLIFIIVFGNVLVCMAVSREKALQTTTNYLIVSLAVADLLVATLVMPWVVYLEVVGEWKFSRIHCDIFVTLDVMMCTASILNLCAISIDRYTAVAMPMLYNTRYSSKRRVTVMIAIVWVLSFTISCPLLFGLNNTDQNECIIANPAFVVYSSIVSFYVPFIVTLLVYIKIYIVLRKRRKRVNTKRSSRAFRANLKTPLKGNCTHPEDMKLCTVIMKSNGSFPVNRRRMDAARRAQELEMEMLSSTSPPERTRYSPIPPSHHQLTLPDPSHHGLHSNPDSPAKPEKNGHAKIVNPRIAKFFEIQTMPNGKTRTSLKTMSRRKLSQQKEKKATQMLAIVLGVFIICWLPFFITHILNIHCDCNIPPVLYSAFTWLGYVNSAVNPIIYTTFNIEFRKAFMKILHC
Method: INHIBITION OF ^3 H-SPIPERONE BINDING TO DOPAMINE D-2 RECEPTORS IN RAT CORPUS STRIATUM IN VITRO
By this method the inhibition by drugs of the binding of ^3 H-spiperone (0.5 nM) to dopamine D-2 receptors in membranes from rat corpus striatum is determined in vitro. Method and results in Hyttel and Larsen, J. Neurochem, 44, 1615-1622, 1985).
Male Wistar (Mol:Wistar) rats (125-250 g) are sacrificed and striatal tissue is dissected and weighed. The tissue is homogenized (Ultra Turrax, 10 sec.) in 10 ml of ice-cold 50 mM K-phosphate buffer pH 7.4 (at 25° C.). The homogenate is centrifuged twice at 20,000 g for 10 min. at 4° C. with rehomogenization of the pellet in 10 ml ice-cold buffer. The final pellet is homogenized in 1300 vol (w/v) ice-cold buffer.
Incubation tubes kept on ice in triplicate receive 100 μl of drug solution in water (or water for total binding) and 4000 μl of tissue suspension (final tissue content corresponds to 3.08 mg original tissue). The binding experimental is initiated by addition of 100 μl of ^3 H-spiperone (final concentration 0.5 nM) and by placing the tubes in a 37° C. water bath. After incubation for 10 min. the samples are filtered under vacuum (0-50 mBar) through Whatman GF/F filters (25 mm). The tubes are rinsed with 5 ml ice-cold buffer which are then poured on the filters. Thereafter, the filters are washed with 2×5 ml of buffer. The filters are placed in counting vials and 4 ml of appropriate scintillation fluid (e.g. Picofluor ™15) are added. After shaking for 1 h and storage 2 hrs in the dark the content of radioactivity is determined by liquid scintillation counting. Specific binding is obtained by subtracting the nonspecific binding in the presence of 10 μM of 6,7-ADTN.
For determination of the inhibition of binding five concentrations of drugs covering 3 decades are used.
England, specific activity 15-25 Ci/mmol.

For `Cc1ccc2c(C3=CCN(CCN4CCN(C(C)C)C4=O)CC3)cn(-c3ccc(F)cc3)c2c1` [Compound 2b, 1-(4-fluorophenyl)-6-methyl-3-[1-[2-[3-(2-propyl)-2-imidazolidinon-1-yl]ethyl]-1,2,3,6-tetrahydropyridin-4-yl]-1H-indole], the IC50 was 67 nM.

same assay, conditions: 3H-spiperone 0.5 nM, rat corpus striatum membranes, in vitro; read-out: Binding IC50, 3H Spi.

In order of falling IC50:
1. COc1ccc2c(C3CCN(CCN4CCOC4=O)CC3)cn(-c3ccc(F)cc3)c2c1 [Compound 4j, 1-(4-fluorophenyl)-6-methoxy-3-[1-[2-(2-oxazolidinon-1-yl]ethyl]-4-piperidyl]-1H-indole]  1100 nM
2. CC(C)N1CCN(CCN2CCC(c3cn(-c4ccc(F)cc4)c4cc(S(C)(=O)=O)ccc34)CC2)C1=O [Compound 4k, 1-(4-fluorophenyl)-6-methylsulfonyl-3-[1-[2-[3-(2-propyl)-2-imidazolidinon-1-yl]ethyl]-4-piperidyl]-1H-indole]  600 nM
